By GI50 is commonly meant the concentration giving 50% growth inhibition.

Among the data in patent US12570618B2, “Compound, production method therefor, and pharmaceutical composition” (TOKYO UNIVERSITY OF SCIENCE FOUNDATION, priority 2021, dated 2026) are GI50 values, retold here.

Experiment in all cases: cell proliferation inhibitory activity, WST-8 (Test Example 2)
Common to all, as to assay type: cell-based

For assay [1], the system named is DU-145 (Prostate cancer cell line). Conditions: Homo sapiens, 48 h, DU-145, 2 days with compound. The source says:
(§1) Compounds RS1 to RS7 obtained in Synthesis Examples 1 to 7, and M-COPA synthesized in the same manner as in Synthesis Example 1 in Patent Document 1 were examined for cell proliferation inhibitory activity against human cultured cancer cells. The cancer cells used were eight human cancer cell lines (one skin cancer cell line, one ovarian cancer cell line, one prostate cancer cell line, two lung adenocarcinoma cell lines, one colorectal cancer cell line, two breast adenocarcinoma cell lines). The cancer cells of each type were seeded on a 96-well plate and cultured for 2 days, and cultured for 2 days with addition of serially diluted products of the compounds, and the cell proliferation was then measured by colorimetry with a water-soluble tetrazolium salt (WST-8). Thereafter, 50% cell proliferation inhibitory concentrations (GI50) were calculated from the cell proliferation curves.

Assay [2] deals with H2228 (Lung adenocarcinoma cell line). To be noted: Homo sapiens, NCI-H2228, 48 h; H2228, 2 days with compound, WST-8, Table 2.
Text: as §1
(In general: Tetrazolium dyes change colour on reduction, which living cells bring about.)

The subject of assay [3] is Hs578t (Breast adenocarcinoma cell line). To be noted: Homo sapiens, Hs-578T, 48 h, 2 days with compound.
Text: as §1

Assay [4] has as its system MCF-7 (Breast adenocarcinoma cell line). Conditions: Homo sapiens, MCF7, 48 h, MCF-7, 2 days with compound.
Text: as §1

Assay [5] concerns Hs925t (Skin cancer cell line). To be noted: Homo sapiens, 48 h, 2 days with compound.
Text: as §1

The subject of assay [6] is DLD-1 (Colorectal cancer cell line). To be noted: Homo sapiens, 48 h, DLD-1, 2 days with compound.
Text: as §1

The subject of assay [7] is SK-OV3 (Ovarian cancer cell line). To be noted: Homo sapiens, SK-OV-3, 48 h, SK-OV3, 2 days with compound.
Text: as §1

In assay [8] the test system is H1650 (Lung adenocarcinoma cell line). To be noted: Homo sapiens, NCI-H1650, 48 h; H1650, 2 days with compound, WST-8, Table 2.
Text: as §1

The structures appear in SMILES notation.

Take `C[C@@H]1[C@@H](O)[C@H](C)C[C@@H]2C=C[C@H](C)[C@H](/C=C/C=C(\Br)C(=O)NCc3cocn3)[C@@H]12` [RS3, (2Z,4E)-2-Bromo-5-((1′S,2′S,4′aR,6′R,7′S,8′S,8′aS)-7′-hydroxy-2′,6′,8′-trimethyl-1′,2′,4′a,5′,6′,7′,8′,8′a-octahydronaphthalen-1′-yl)-N-(oxazol-4″-ylmethyl)penta-2,4-dienamide]: the GI50 in assay [1] worked out at 200 nM; in assay [2] it was 50 nM; in assay [3] it was 3 nM; in assay [4] it was 300 nM; in assay [5], 30 nM; in assay [6], 30 nM. For the same compound, the GI50 in assay [7] stood at 30 nM; in assay [8] it was 80 nM.
For the compound `C[C@@H]1[C@@H](O)[C@H](C)C[C@@H]2C=C[C@H](C)[C@H](/C=C/C=C(\Br)C(=O)NCc3nccs3)[C@@H]12` [RS4, (2Z,4E)-2-Bromo-5-((1′S,2′S,4′aR,6′R,7′S,8′S,8′aS)-7′-hydroxy-2′,6′,8′-trimethyl-1′,2′,4′a,5′,6′,7′,8′,8′a-octahydronaphthalen-1′-yl)-N-(thiazol-2″-ylmethyl)penta-2,4-dienamide], the GI50 in assay [1] was 300 nM; in assay [2], 70 nM; in assay [3], 30 nM; in assay [4], 500 nM; in assay [5] it was 10 nM; in assay [6], 40 nM. Besides, the GI50 in assay [7] came out at 40 nM; in assay [8], 70 nM.
`C[C@H]1[C@@H]2[C@@H](/C=C/C=C(\Br)C(=O)NCc3cncs3)[C@@H](C)C=C[C@H]2CC[C@@H]1O` [RS6, (2Z,4E)-2-Bromo-5-((1′S,2′S,4′aR,7′S,8′S,8′aS)-7′-hydroxy-2′,8′-dimethyl-1′,2′,4′a,5′,6′,7′,8′,8′a-octahydronaphthalen-1′-yl)-N-(thiazol-5″-ylmethyl)penta-2,4-dienamide]: the GI50 in assay [1] was determined as 50 nM; in assay [2], 100 nM; in assay [3] it was 30 nM; in assay [4] it was 100 nM; in assay [5] it was 3 nM; in assay [6], 40 nM. Further, the GI50 in assay [7] turned out to be 5 nM; in assay [8] it was 100 nM.
Turning to `C[C@H]1[C@@H]2[C@@H](/C=C/C=C(\Br)C(=O)NCc3cccnc3)[C@@H](C)C=C[C@H]2CC[C@@H]1O` [RS7, (2Z,4E)-2-Bromo-5-((1′S,2′S,4′aR,7′S,8′S,8′aS)-7′-hydroxy-2′,8′-dimethyl-1′,2′,4′a,5′,6′,7′,8′,8′a-octahydronaphthalen-1′-yl)-N-(pyridin-3″-ylmethyl)penta-2,4-dienamide], the GI50 was 300 nM in assay [1]; 1000 nM in assay [2]; 10 nM in assay [3]; 1000 nM in assay [4]; 30 nM in assay [5]; 30 nM in assay [6]. The 50% growth inhibitory concentration (GI50) is 50 nM in assay [7] and 100 nM in assay [8].
